Experimental data published in paper PMC4566129, “Factors Governing P-Glycoprotein-Mediated Drug–Drug Interactions at the Blood–Brain Barrier Measured with Positron Emission Tomography” (Molecular Pharmaceutics, 2015).
Read-outs that look alike come from different tables or passages of the source. Marks after values point to notes of the source that are not given here.

How the values were obtained:
[1] = Tariquidar plasma concentration at the end of the PET scan (LC/MS); format: in vivo, mouse; conditions: 30 mg/kg iv
[2] = tested on: human plasma; design: method as in PMID 23340958; conditions: human plasma ref 38; cited from earlier work
[3] = target: T1, Abcb1a (Mus musculus, UniProt P21447); assay: PET imaging of radiotracer brain distribution (Kb,brain) in C57BL/6N wild-type, Abcb1a/1b(−/−) and Abcb1a/1b(+/−) mice and tariquidar concentration–response
T1 sequence (P21447 whole entry): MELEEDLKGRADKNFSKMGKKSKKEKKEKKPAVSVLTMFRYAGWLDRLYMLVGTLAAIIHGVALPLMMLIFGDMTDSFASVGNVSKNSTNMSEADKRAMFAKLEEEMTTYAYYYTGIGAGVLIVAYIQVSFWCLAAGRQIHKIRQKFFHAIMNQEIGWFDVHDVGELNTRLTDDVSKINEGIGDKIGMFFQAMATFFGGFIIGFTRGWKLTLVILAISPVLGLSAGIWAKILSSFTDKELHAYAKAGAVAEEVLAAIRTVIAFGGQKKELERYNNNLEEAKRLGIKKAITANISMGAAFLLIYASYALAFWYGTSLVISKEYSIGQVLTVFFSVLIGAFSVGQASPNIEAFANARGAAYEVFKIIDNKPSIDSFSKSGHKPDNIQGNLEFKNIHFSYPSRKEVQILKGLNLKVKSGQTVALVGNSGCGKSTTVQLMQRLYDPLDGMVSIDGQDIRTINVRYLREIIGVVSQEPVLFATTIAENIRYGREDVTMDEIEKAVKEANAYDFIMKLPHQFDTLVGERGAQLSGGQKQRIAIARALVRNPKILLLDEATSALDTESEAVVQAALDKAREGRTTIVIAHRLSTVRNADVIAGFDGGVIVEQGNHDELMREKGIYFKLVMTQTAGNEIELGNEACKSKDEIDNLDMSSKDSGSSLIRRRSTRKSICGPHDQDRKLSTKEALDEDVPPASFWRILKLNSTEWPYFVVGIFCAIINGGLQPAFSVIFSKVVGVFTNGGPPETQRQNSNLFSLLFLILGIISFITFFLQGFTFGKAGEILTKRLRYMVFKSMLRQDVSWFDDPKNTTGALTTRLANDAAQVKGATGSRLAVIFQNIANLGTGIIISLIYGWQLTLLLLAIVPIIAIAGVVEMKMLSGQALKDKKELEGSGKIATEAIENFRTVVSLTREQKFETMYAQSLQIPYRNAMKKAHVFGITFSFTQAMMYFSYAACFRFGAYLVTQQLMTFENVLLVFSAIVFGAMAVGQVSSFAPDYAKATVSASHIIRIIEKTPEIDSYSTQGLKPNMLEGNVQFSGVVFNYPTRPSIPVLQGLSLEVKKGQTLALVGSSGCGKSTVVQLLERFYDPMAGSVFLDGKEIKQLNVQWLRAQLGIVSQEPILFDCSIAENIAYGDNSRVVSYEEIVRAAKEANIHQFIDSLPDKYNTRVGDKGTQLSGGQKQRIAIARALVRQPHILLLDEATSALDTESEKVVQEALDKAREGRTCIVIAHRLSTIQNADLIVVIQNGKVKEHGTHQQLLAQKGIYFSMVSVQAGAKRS
Description: (§1) Animal respiratory rate and body temperature were constantly monitored (SA Instruments Inc., Stony Brook, NY, USA), and the isoflurane level was adjusted (1.5–2% in oxygen) to achieve a constant and sufficient depth of anesthesia. Anesthesia was maintained for the whole pretreatment and imaging period. Following administration, anatomical magnetic resonance imaging (MRI) was performed on a 1 T benchtop MRI (ICON, Bruker BioSpin GmbH, Ettlingen, Germany) using a modified 3D T1-weighted gradient echo sequence (T1-FLASH) and the following imaging parameters: echo time (TE) = 4.7 ms; repetition time (TR) = 27 ms; flip angle (FA) = 25°; field of view (FOV) = 7.6 × 2.6 × 2.4 cm; matrix = 380 × 130; 32 slices; slice thickness = 750 μm; total imaging time = 22 min. Following MRI, the animal bed was transferred into the gantry of a microPET scanner (Focus 220, Siemens Medical Solutions, Knoxville, TN, USA), and a 10 min transmission scan using a ^57Co point source was recorded.
(§2) After completion of the imaging procedure, a terminal blood sample was withdrawn under isoflurane anesthesia from the retro-orbital sinus vein, and the animals were sacrificed by cervical dislocation. Blood was centrifuged (17000g, 4 °C, 4 min) to obtain plasma, and whole brains were removed. […] The measured radioactivity data were corrected for radioactive decay and expressed as standardized uptake value ((radioactivity per g/injected radioactivity) × body weight). The remainder of the plasma samples was stored at −80 °C until measurement of tariquidar plasma concentrations using a previously described combined liquid chromatography tandem mass spectrometry (LC/MS) assay.[17]
(§3) Images were reconstructed using Fourier rebinning of the 3D sonograms followed by two-dimensional filtered back projection with a ramp filter, resulting in an image voxel size of 0.4 × 0.4 × 0.796 mm^3. A standard data correction protocol (normalization, attenuation, and decay correction) was applied to the PET data. The PET units were converted into units of radioactivity concentration by applying a calibration factor derived from imaging of a cylindrical phantom with a known ^11C-radioactivity concentration. Using the image analysis software Amide,[31] whole brain was manually outlined on the PET images, and time–activity curves, expressed in standardized uptake value, were derived.
(§4) Concentration–response relationships were analyzed by nonlinear regression analysis based on a sigmoidal model with variable slope using Prism 6 software.

[4] = tested on: ABCB1; design: method as in PMID 20016890; conditions: rats ref 35; read-out: in vivo IC50 of tariquidar for enhancement of brain distribution of (R)-[11C]verapamil; cited from earlier work
[5] = target: T2, ABCB1 (Homo sapiens, UniProt P08183); assay: cell-based; conditions: ABCB1-transfected LLC cells, normalized TR over 6 h, estimated by sigmoidal fit
T2 sequence (P08183 whole entry): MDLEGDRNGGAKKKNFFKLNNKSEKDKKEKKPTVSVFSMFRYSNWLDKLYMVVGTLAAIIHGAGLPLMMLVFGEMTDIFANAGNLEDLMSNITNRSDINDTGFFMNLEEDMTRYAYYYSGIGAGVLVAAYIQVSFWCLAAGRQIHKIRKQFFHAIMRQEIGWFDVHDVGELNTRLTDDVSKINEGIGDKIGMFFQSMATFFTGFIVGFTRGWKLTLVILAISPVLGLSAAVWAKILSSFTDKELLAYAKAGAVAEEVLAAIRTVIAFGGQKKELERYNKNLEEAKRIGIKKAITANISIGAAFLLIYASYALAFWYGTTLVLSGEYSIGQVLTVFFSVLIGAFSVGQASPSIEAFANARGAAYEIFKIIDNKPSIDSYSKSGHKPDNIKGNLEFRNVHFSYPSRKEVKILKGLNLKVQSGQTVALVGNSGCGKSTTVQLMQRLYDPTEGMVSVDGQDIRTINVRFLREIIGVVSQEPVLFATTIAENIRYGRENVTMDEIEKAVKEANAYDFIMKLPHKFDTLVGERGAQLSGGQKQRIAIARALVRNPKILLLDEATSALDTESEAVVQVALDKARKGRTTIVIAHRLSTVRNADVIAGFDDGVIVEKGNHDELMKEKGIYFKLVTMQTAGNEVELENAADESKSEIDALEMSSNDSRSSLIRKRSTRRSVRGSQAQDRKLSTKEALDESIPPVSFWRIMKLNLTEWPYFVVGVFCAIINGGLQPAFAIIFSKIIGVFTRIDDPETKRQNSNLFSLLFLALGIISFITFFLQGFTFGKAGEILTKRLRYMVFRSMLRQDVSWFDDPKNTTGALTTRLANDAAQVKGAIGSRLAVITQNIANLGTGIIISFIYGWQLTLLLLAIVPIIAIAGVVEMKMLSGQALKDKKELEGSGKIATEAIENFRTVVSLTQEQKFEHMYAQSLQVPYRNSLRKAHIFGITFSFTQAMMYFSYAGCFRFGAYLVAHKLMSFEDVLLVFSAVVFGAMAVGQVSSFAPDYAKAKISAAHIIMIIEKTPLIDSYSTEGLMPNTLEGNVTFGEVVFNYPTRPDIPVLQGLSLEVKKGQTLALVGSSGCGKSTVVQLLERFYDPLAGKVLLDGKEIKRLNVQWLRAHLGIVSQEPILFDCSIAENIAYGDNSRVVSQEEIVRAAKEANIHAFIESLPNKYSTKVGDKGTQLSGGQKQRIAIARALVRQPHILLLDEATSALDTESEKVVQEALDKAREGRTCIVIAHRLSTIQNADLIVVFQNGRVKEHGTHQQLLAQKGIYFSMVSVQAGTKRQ

[6] = target: T2, ABCB1
[7] = target: T1, Abcb1a; assay: Bidirectional transport assay in Abcb1a-transfected LLC cells (LLC-Abcb1a) without/with tariquidar; conditions: for IC50: normalized TR over 6 h, estimated by sigmoidal fit
Description: LLC-PK1 cells transduced with human MDR1 (LLC-ABCB1) or murine Mdr1a (LLC-Abcb1a) were kindly provided by Prof. P. Borst and Dr. A. Schinkel (The Netherlands Cancer Institute, Amsterdam, The Netherlands).
(§5) Tariquidar or solvent was added to both compartments. […] To determine membrane integrity, transepithelial electrical resistance (TEER) and, in representative wells, [^14C]mannitol diffusion were measured with criteria for exclusion described earlier.[27]
(§6) Apparent substrate permeability (Papp) from the basolateral to the apical compartment (b–A) and vice versa (a–B) was calculated using the following equation: [drawing 1] where dQ/dt (disintegration/min) is the permeability rate of the substrate into the sample compartment, A the growth area of the monolayer, and C0 the initial substrate concentration in the donor compartment. The transport ratio (TR) was calculated by dividing Papp(b–A) by Papp(a–B). […] With Prism6 software (GraphPad Software, La Jolla, CA, USA) a sigmoidal model with variable slope was used to analyze concentration–response relationships by nonlinear regression.

[8] = target: T2, ABCB1; conditions: cited from earlier work
[9] = tested on: LLC wild-type cells; conditions: LLC wild-type cells (data not shown)
Description: as §5, §6

[10] = tested on: Abcb1a; assay: PET imaging of radiotracer brain distribution (Kb,brain) in C57BL/6N wild-type, Abcb1a/1b(−/−) and Abcb1a/1b(+/−) mice and tariquidar concentration–response
Description: as §1, §2, §3, §4

[11] = target: Abcb1a/1b (Mus musculus, UniProt P21447); conditions: for Kp,brain: wild-type FVB/N mice, 25 min after injection
Abcb1a/1b, sequence (P21447 whole entry): as the sequence (P21447 whole entry) above
Description: Blood and brain were transferred to preweighed tubes and measured for radioactivity in a gamma counter. The measured radioactivity data were corrected for radioactive decay, and Kb,brain values were calculated.

[12] = tested on: C57BL/6N mouse plasma; assay: Plasma protein binding (ultrafiltration) in mouse plasma; format: in vitro ADME
Description: (§7) After incubation, plasma aliquots (200 μL) were transferred to the preconditioned Amicon filters, which were centrifuged (12000g, 30 min, 25 °C). Filters and tubes were separately measured in a gamma counter, and the obtained data were decay corrected. Percent plasma protein binding was calculated as percent radioactivity in the filter relative to total radioactivity (filter and tube).

[13] = short anesthesia (5 min), tariquidar 15 mg/kg, 25 min after injection
Description: (§8) In one cohort, all procedures were performed in isoflurane anesthetized (1.5–2% in oxygen) animals resulting in a total anesthesia length of 160 min (= long anesthesia). In the second cohort, pretreatment and radiotracer injection were performed in awake animals which were only shortly anesthetized prior to retro-orbital blood sampling, resulting in a total anesthesia length of 5 min (= short anesthesia). […] Blood was centrifuged to obtain plasma, and whole brains were removed. To plasma and homogenized brain tissue were added unlabeled verapamil (10 mg/mL in water, 100 μL) or N-desmethyl-loperamide (10 mg/mL in water/acetonitrile; 1/1, v/v, 100 μL), and proteins were precipitated by the addition of acetonitrile (1 μL per μL of plasma and 0.5 mL per brain). The homogenates were vortexed and then centrifuged (12000g, 5 min, 21 °C). Each supernatant (plasma, brain, 3 μL each) and diluted radiotracer solution as reference were spotted on thin-layer chromatography (TLC) plates (silica gel 60F 254 nm, 20 × 20 cm; Merck, Darmstadt, Germany), and plates were developed in ethyl acetate/triethylamine (9/1, v/v). Detection was performed by placing the TLC plates on multisensitive phosphor screens (PerkinElmer Life Sciences, Waltham, MA). The screens were scanned at 300 dpi resolution using a PerkinElmer Cyclone Plus Phosphor Imager (PerkinElmer Life Sciences).

[14] = target: T1, Abcb1a; conditions: for Kp,brain,VPM or Kp,brain,dLOP fold increase, tariquidar vs vehicle: metabolite corrected; for Kp,brain for unchanged parent tracer (Kp,brain,VPM or Kp,brain,dLOP): 25 min, corrected for radiolabeled metabolites
Description: as §8

[15] = tested on: human plasma; assay: Plasma protein binding (ultrafiltration) in human plasma; format: in vitro ADME; conditions: without tariquidar
Description: as §7

COc1cc2c(cc1OC)CN(CCc1ccc(NC(=O)c3cc(OC)c(OC)cc3NC(=O)c3cnc4ccccc4c3)cc1)CC2 [tariquidar]
tariquidar plasma concentration (mean ± SD) [1]: 3.508 ± 0.427 µM
tariquidar plasma concentration (range) [1]: 2802 to 3863 nM
unbound fraction in human plasma [2]: 0.0063
IC50 [3]: 1330 nM
Hill slope, Kb,brain of (R)-[11C]verapamil vs tariquidar plasma concentration ([3]; C57BL/6N wild-type mice): 2.98
Hill slope, Kb,brain of [11C]-N-desmethyl-loperamide vs tariquidar plasma concentration ([3]; C57BL/6N wild-type mice): 1.44
IC50 ([3]; in vivo IC50 of tariquidar (plasma concentration) for increase in Kb,brain of (R)-[11C]verapamil, C57BL/6N wild-type mice, normalized to Abcb1a/1b(−/−) mice): 1050 nM
IC50 ([3]; unbound tariquidar in vivo IC50, (R)-[11C]verapamil, mice, in vivo IC50 corrected for plasma protein binding of tariquidar): 6.6 nM
IC50 ([3]; unbound tariquidar in vivo IC50, [11C]-N-desmethyl-loperamide, mice, in vivo IC50 corrected for plasma protein binding of tariquidar): 8.4 nM
IC50 [4]: 650 nM
IC50 ([5]; IC50 of tariquidar for inhibition of [3H]-N-desmethyl-loperamide transport): 9 nM
IC50 ([5]; IC50 of tariquidar for inhibition of [3H]verapamil transport): 17.2 nM
Hill slope, inhibition of [3H]-N-desmethyl-loperamide transport ([6]; ABCB1-transfected cells): 2.1
Hill slope, inhibition of [3H]verapamil transport ([6]; ABCB1-transfected cells): 10.8
Hill slope, inhibition of [3H]-N-desmethyl-loperamide transport ([7]; Abcb1a-transfected cells): 1.3
Hill slope, inhibition of [3H]verapamil transport ([7]; Abcb1a-transfected cells): 2.6
IC50 ([7]; IC50 of tariquidar for inhibition of [3H]-N-desmethyl-loperamide transport, Abcb1a-transfected LLC cells): 6 nM
IC50 ([7]; IC50 of tariquidar for inhibition of [3H]verapamil transport, Abcb1a-transfected LLC cells): 17.9 nM
IC50 ([8]; read-out: in vivo IC50 of tariquidar for enhancement of brain distribution of (R)-[11C]verapamil, humans ref 19): 2250 nM

[3H]C([3H])([3H])NC(=O)C(CCN1CCC(O)(c2ccc(Cl)cc2)CC1)(c1ccccc1)c1ccccc1 [[^3H]-N-desmethyl-loperamide]
transport ratio (TR) [9]: 1.6 ± 0.03
transport ratio (TR), Papp(b–A)/Papp(a–B) ([6]; ABCB1-transfected LLC cells, 5 nM substrate, without tariquidar): 18.5 ± 1.7
TR relative to TR of [3H]verapamil ([6]; ABCB1-transfected cells): 5 times
transport ratio relative to [3H]verapamil ([6]; in ABCB1- and Abcb1a-transfected cells (both cell types)): 5 to 9 times
transport ratio (TR), Papp(b–A)/Papp(a–B) ([7]; Abcb1a-transfected LLC cells, 5 nM substrate, without tariquidar): 27.6 ± 6.5
TR relative to TR of [3H]verapamil ([7]; Abcb1a-transfected cells): 8.6 times

CNC(=O)C(CCN1CCC(O)(c2ccc(Cl)cc2)CC1)(c1ccccc1)c1ccccc1 [[^11C]-N-desmethyl-loperamide]
brain-to-blood concentration ratio (Kb,brain) ([3]; heterozygous Abcb1a/1b(+/−) mice): 1.54 ± 0.19
increase in Kb,brain over vehicle treated wild-type mice ([3]; heterozygous Abcb1a/1b(+/−) mice, not significant): 1.1 fold
brain-to-blood concentration ratio (Kb,brain) ([3]; vehicle treated C57BL/6N wild-type mice, end of PET scan (50–60 min), total radioactivity): 1.42 ± 0.16
brain-to-blood concentration ratio (Kb,brain) ([3]; wild-type mice after 30 mg/kg tariquidar iv 2 h before PET): 2.58 ± 0.44
blood radioactivity concentrations after tariquidar pretreatment compared to vehicle ([10]; C57BL/6N wild-type mice, end of PET scan): increased
increase in Kb,brain over vehicle treated wild-type mice ([10]; homozygous Abcb1a/1b(−/−) mice): 2.8 fold
brain-to-blood concentration ratio (Kb,brain) ([10]; vehicle treated homozygous Abcb1a/1b(−/−) mice): 3.93 ± 0.36
Kb,brain fold increase, Abcb1a/1b(−/−) vs wild-type ([11]; awake): 13.8 fold
Kp,brain fold increase, Abcb1a/1b(−/−) vs wild-type ([11]; awake): 13.7 fold
Kp,brain ([11]; awake): 0.20 ± 0.05
Kb,brain fold increase, Abcb1a/1b(−/−) vs wild-type ([11]; isoflurane): 5.7 fold
Kp,brain fold increase, Abcb1a/1b(−/−) vs wild-type ([11]; isoflurane): 6.0 fold
Kp,brain ([11]; isoflurane): 0.20 ± 0.04
percentage of non-protein bound radiotracer ([12]; with tariquidar (2400 nM)): 12.0 ± 1.0%
percentage of non-protein bound radiotracer ([12]; without tariquidar): 14.5 ± 1.8%
percentage of unchanged radiotracer in brain [13]: 70 ± 11%
percentage of unchanged radiotracer in plasma [13]: 18 ± 1%
percentage of unchanged radiotracer in plasma ([13]; listed as [^11C]-N-Desmethyl-loperamide): 18 ± 1 ^d %
Kb,brain fold increase, tariquidar vs vehicle ([14]; long anesthesia (160 min)): 4.0 fold
Kp,brain fold increase, tariquidar vs vehicle ([14]; long anesthesia (160 min)): 3.7 fold
Kp,brain,VPM or Kp,brain,dLOP fold increase, tariquidar vs vehicle ([14]; long anesthesia (160 min)): 18.3 fold
Kp,brain for unchanged parent tracer (Kp,brain,VPM or Kp,brain,dLOP) ([14]; long anesthesia (160 min), tariquidar 15 mg/kg): 7.34 ± 0.58
Kp,brain for unchanged parent tracer (Kp,brain,VPM or Kp,brain,dLOP) ([14]; long anesthesia (160 min), vehicle): 0.40 ± 0.16
Kb,brain fold increase, tariquidar vs vehicle ([14]; short anesthesia (5 min)): 7.0 fold
Kp,brain fold increase, tariquidar vs vehicle ([14]; short anesthesia (5 min)): 6.6 fold
Kp,brain,VPM or Kp,brain,dLOP fold increase, tariquidar vs vehicle ([14]; short anesthesia (5 min)): 9.6 fold
Kp,brain for unchanged parent tracer (Kp,brain,VPM or Kp,brain,dLOP) ([14]; short anesthesia (5 min), tariquidar 15 mg/kg): 4.85 ± 0.29 ^b
Kp,brain for unchanged parent tracer (Kp,brain,VPM or Kp,brain,dLOP) ([14]; short anesthesia (5 min), vehicle): 0.51 ± 0.18
increase in distribution to the human brain following administration of tariquidar ([8]; humans, compared with PET scans without tariquidar ref 18-21): 2 to 5 times
percentage of non-protein bound radiotracer [15]: 13.9 ± 0.7%
